ChEMBL document CHEMBL1150891, “Isolation of 1-carboxymethylnicotinic acid from the marine sponge anthosigmella cf. raromicrosclera As a cysteine protease inhibitor1” (J Nat Prod, 1998)

Molecular target: T1, Papain (Carica papaya, UniProt P00784)
T1 sequence (P00784 whole entry): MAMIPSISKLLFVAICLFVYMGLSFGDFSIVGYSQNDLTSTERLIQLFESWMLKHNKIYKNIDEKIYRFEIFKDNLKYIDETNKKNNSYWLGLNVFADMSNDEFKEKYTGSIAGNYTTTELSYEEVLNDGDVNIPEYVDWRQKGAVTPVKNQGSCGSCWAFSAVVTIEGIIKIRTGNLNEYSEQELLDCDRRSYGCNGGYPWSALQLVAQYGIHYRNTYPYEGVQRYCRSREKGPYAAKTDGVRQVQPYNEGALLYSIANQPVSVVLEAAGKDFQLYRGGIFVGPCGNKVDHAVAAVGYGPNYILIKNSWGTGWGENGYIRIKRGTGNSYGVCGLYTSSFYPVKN
Assay: Inhibition of Carica papaya papain

O=C([O-])C[n+]1cccc(C(=O)O)c1
IC50: 442 µM
